Data from US10130590B2, “Methods of treating cancer with atovaquone-related compounds” (DANA-FARBER CANCER INSTITUTE, INC., priority 2013, dated 2018).

How the values were obtained:
mTOR pathway = experiment: Western blot of S6 phosphorylation in TSC2 or REDD1 knockout MEFs; type: cell-based, mouse; conditions: 25 μM, 2.5 hours
Experimental: Mouse embryonic fibroblasts (MEFs) were cultured in DMEM+10% FBS. TSC2-null (see, Zhang et al. J Clin Invest. 2003; 112(8):1223-1233) and REDD1-null (see, Sofer et al. Mol. Cell. Biol. July 2005 vol. 25 no. 14 5834-5845) MEFs, along with MEFs from the littermate controls, were kind gifts from Dr. John Blenis and Dr. Leif Ellisen, respectively. HEL (see, Iwama et al. Mol. Cell. Biol. June 1999 vol. 19 no. 6 3940-3950) was a kind gift of Dr. Daniel G. Tenen and grown in RPMI-1640+10% FBS. OCI-AML2 and OCI-AML3 (see, Grunberger et al. Blood Dec. 1, 2003 vol. 102 no. 12 4153-4158), and MOLM-13 (German Collection of Microorganisms and Cell Cultures (DSMZ, Braunschweig, Germany)) were kind gifts of Dr. James D. Griffin and grown in RPMI-1640+10% FBS. MM.1S (ATCC) was a kind gift of Dr. Kenneth C. Anderson and grown in RPMI-1640+10% FBS. SET2 (see, Koppikar et al. Nature 489, 155-159 (6 Sep. 2012)) was a kind gift of Dr. Ross L. Levine and grown in RPMI-1640+10% FBS. HL60 (ATCC) was a kind gift of Dr. James D. Griffin and grown in RPMI-1640+10% FBS. […] Molecular Pharmacology 78(5):903-908; and Walker S R, et al. (2009) Reciprocal effects of STAT5 and STAT3 in breast cancer. Molecular Cancer Research: MCR 7(6):966-976). Peripheral blood mononuclear cells (PBMCs) were isolated from healthy donors by Ficoll density gradient centrifugation and maintained in RPMI-1640+10% FBS. […]

[1] = tested on: acute myeloid leukemia (AML); experiment: Retrospective analysis of atovaquone exposure in AML patients after HSCT; type: in vivo, human
Experimental: Atovaquone start and end dates for approximately 500 AML patients who underwent HSCT at Dana-Farber Cancer Institute from 2006-2012 were obtained by chart review of the electronic medical record with DFCI IRB approval. Atovaquone was administered as a suspension, 750 mg twice daily. Due to the intermittent atovaquone dosing for some patients, a discontinuation for longer than 50 days disqualified subsequent atovaquone treatment from counting toward a patient's total atovaquone exposure. Patients who received more than one HSCT were excluded (4% of total patients).
The patient population consisted of AML patients treated with HSCT at the Dana-Farber Cancer Institute and who survived at least 150 days after transplant without relapse. Patients treated with atovaquone for at least 100 days within the 150-day period were classified as “high atovaquone” exposure, while the remaining patients were classified as “low atovaquone” exposure. […] To further investigate the anti-cancer activity of atovaquone in patients, serum samples were collected from patients approximately 100 days following HSCT who were being treated with either TMP-SMX or atovaquone. […] Atovaquone is a colored compound, and its presence in patient plasma is visibly noticeable.

NF-κB = NF-κB cell-based reporter system
Experimental: To determine if atovaquone inhibits STAT3, it was tested in a cell-based reporter system of STAT3 transcriptional activity (Nelson E A, et al. (2008) Nifuroxazide inhibits survival of multiple myeloma cells by directly inhibiting STAT3. Blood 112(13):5095-5102). These cells lack basal STAT3 activation; upon IL-6 treatment, STAT3 becomes activated and drives transcription of a STAT3-dependent luciferase reporter gene. The STAT3-luc reporter cells were pre-treated with drug for 1 hour, then stimulated with IL-6 (10 ng/ml) for 5 hr. Activity of firefly luciferase was measured and normalized by cell viability (Cell Titer Glo). […] To determine if atovaquone inhibits STAT3 activity specifically over other transcription factors, it was tested in cell-based reporter systems for STAT1 and STAT5, two other STAT family members, and NF-κB, an unrelated transcription factor.

JAK family members = experiment: In vitro kinase assays (Invitrogen SelectScreen); type: biochemical; conditions: atovaquone 15 μM
Experimental: FIG. 15 contains a bar graph quantifying kinase activity (expressed as percent of vehicle) for the indicated kinases (JAK1, JAK2, JAK3, TYK2, SRC) determined using in vitro kinase assays (Invitrogen SelectScreen) and following treatment with atovaquone (AQ) (15 μM) or JAK inhibitor 1 (0.5 μM).
To understand how atovaquone inhibits STAT3 phosphorylation, the possibility that atovaquone decreases the kinase activity of JAKs, which are responsible for STAT3 activation in the systems previously tested was considered. To assess kinase activity, the extent of kinase auto-phosphorylation, which provides a cellular readout of kinase activity, was first analyzed. […] In particular, U266 cells were treated with atovaquone (15 μM) or JAK inhibitor 1(1 μM) for 1 hour, followed by lysis and immunoprecipitation to TYK2. The blot was probed with a pan-phospho-tyrosine antibody (FIG. 14A). Due to technical limitations, tyrosine phosphorylation of other JAK family members was not detected in U266 cells. Next, HEL cells were treated with atovaquone (20 μM) or JAK inhibitor 1 (1 μM) for 6 hours, followed by lysis and immunoprecipitation to JAK2, which was selected because these cells harbor mutant JAK2-V617F. The blot was probed with a pan-phospho-tyrosine antibody, as well as antibodies specific to phospho-Tyr570 and phospho-Tyr1007/1008 (FIG. 14B). […]

O=C1C(O)=C([C@H]2CC[C@H](c3ccc(Cl)cc3)CC2)C(=O)c2ccccc21 [atovaquone, trans-2-[4-(4-chlorophenyl)cyclohexyl]-3-hydroxy-1,4-naphthalenedione]
S6 phosphorylation in MEFs with knockout of TSC2 or REDD1 (mTOR pathway): no effect on S6 phosphorylation
relapse-free survival ([1]; "high atovaquone" (at least 100 days within the 150-day period) vs "low atovaquone"): significantly improved relapse-free survival
overall survival ([1]; "high atovaquone" vs "low atovaquone"): trend toward improved overall survival
NF-κB transcription factor activity (NF-κB): modestly affected at the higher doses
in vitro kinase activity (JAK family members): no inhibition
